From PubChem BioAssay (NCI) come the findings set out here.

The structures appear in SMILES notation.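 All cell lines were grown in 96-well plates and treated with compound for 48 hours. At the GI50, growth is halved. TGI: total growth inhibition.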

Assay in all cases: NCI anticancer screen, dose series, 48 h
The test system of test [1] is SNB-19 CNS.
For test [2], the system named is A498 renal.
The test system of test [3] is HL-60(TB) leukemia.
The test system of test [4] is HCT-116 colon.
In test [5] the test system is KM12 colon.
In test [6] the test system is NCI-H522 lung.
Test [7] has as its system SF-268 CNS.
Test [8] relates to PC-3 prostate.

In the case of `Nc1nc(N)nc(CCCCc2nc(N)nc(N)n2)n1`, the TGI in test [1], in test [2], in test [3], in test [4], in test [5] and in test [6] was greater than 100 µM throughout. The TGI in test [7] and in test [8] was greater than 100 µM in each case.
As to `CC(NCCN(C)C)C1CCC2C3CCc4cc(O)ccc4C3CCC12C` (centres undefined), the TGI in test [1] stood at 13.2 µM; in test [2], 8.38 µM; in test [3] it was 4.15 µM; in test [4], 7.7 µM; in test [5], 10.3 µM; in test [6], 10.6 µM. Moreover, the values for the TGI in test [7] and in test [8] were 17.5 µM and 11.7 µM, respectively.
As to `Nc1c(C(=O)c2cccc(-c3cccnc3)c2)cnn1-c1ccc(F)cc1`, the GI50 in test [1] is greater than 25 µM; in test [2], greater than 25 µM; in test [3], greater than 25 µM; in test [4] it was greater than 25 µM; in test [5] it was greater than 25 µM; in test [6], 6.12 µM. For the same molecule, the GI50 in test [7] is greater than 20.9 µM; in test [8], greater than 25 µM. Besides, the TGI in test [1] is greater than 25 µM; in test [2], greater than 25 µM; in test [3], greater than 25 µM; in test [4] it was greater than 25 µM; in test [5] it was greater than 25 µM; in test [6], 24.7 µM. The TGI in test [7] and in test [8] was greater than 25 µM each time.
Turning to `COc1ccc([N+](=O)[O-])c2c(NCCCN(C)C)c(C)c(C)nc12`, the TGI in test [1], in test [2], in test [3], in test [4], in test [5] and in test [6] was greater than 100 µM each time. Besides, the TGI in test [7] and in test [8] was greater than 100 µM throughout.
Regarding `COc1cc(C[C@H]2COC(=O)[C@]2(O)Cc2ccc(OCc3ccccc3)c(OC)c2)ccc1OCc1ccccc1`, the GI50 in test [1] was greater than 100 µM; in test [2] it was 27.5 µM; in test [3] it was 28 µM; in test [4], 16.8 µM; in test [5], 7.3 µM; in test [6], 65.2 µM. In addition, the GI50 was 73.7 µM in test [7] and 74.7 µM in test [8]. The TGI in test [1] was greater than 100 µM; in test [2] it was 99.1 µM; in test [3] it was greater than 100 µM; in test [4], greater than 100 µM; in test [5] it was greater than 100 µM; in test [6], greater than 100 µM. In addition, the TGI in test [7] and in test [8] was greater than 100 µM in each case.
As for `CN(C)Cc1ccc(NC(=O)c2cncc(C#Cc3cnc(N)c4ncccc34)c2)cc1C(F)(F)F`, the GI50 in test [1] is 1.89 µM; in test [2] it was 1.5 µM; in test [3] it was 0.937 µM; in test [4], 1.08 µM; in test [5] it was 0.0759 µM; in test [6] it was 1.93 µM. Further, the GI50 was 1.66 µM in test [7] and 1.64 µM in test [8]. Also, the TGI is 3.5 µM in test [1]; 4.63 µM in test [2]; 2.51 µM in test [3]; 2.33 µM in test [4]; 1.4 µM in test [5]; 4.07 µM in test [6]. Moreover, the values for the TGI in test [7] and in test [8] were 3.2 µM and 3.04 µM, respectively.
As to `O=[N+]([O-])c1ccccc1/C=N\NC(=S)N/N=C/c1ccccc1[N+](=O)[O-]`, the GI50 is 6.71 µM in test [1]; 2.49 µM in test [2]; 3.59 µM in test [3]; 3.78 µM in test [4]; 2.55 µM in test [5]; 2.15 µM in test [6]. Further, the GI50 in test [7] is 5.73 µM; in test [8] it was 10 µM. For the same molecule, the TGI is greater than 100 µM in test [1]; 28.4 µM in test [2]; greater than 100 µM in test [3]; greater than 100 µM in test [4]; greater than 100 µM in test [5]; 21.7 µM in test [6]. Moreover, the TGI in test [7] and in test [8] was greater than 100 µM each time.
Take `N[C@H]1CCC[C@@H](O)C1O` (some centres undefined): the TGI in test [1], in test [2], in test [3], in test [4], in test [5] and in test [6] was greater than 100 µM each time. The TGI in test [7] and in test [8] was greater than 100 µM in each case.
As for `Nc1[nH]nc(Nc2ccccc2)c1-c1nc2ccccc2s1`, the GI50 in test [1] is 2.08 µM; in test [2], 1.69 µM; in test [3], 2.61 µM; in test [4] it was 1.29 µM; in test [5] it was 1.61 µM; in test [6], 1.58 µM. For the same molecule, the GI50 is 2.36 µM in test [7] and 1.58 µM in test [8]. Moreover, the TGI in test [1] was 4.56 µM; in test [2], 4.01 µM; in test [3] it was 7 µM; in test [4], 2.71 µM; in test [5], 3.6 µM; in test [6], 3.63 µM. For the same molecule, the TGI amounted to 8.83 µM in test [7] and 3.39 µM in test [8].
With `OCc1c(-c2cccs2)oc(-c2cccs2)c1CO`, the GI50 in test [1] was 67.5 µM; in test [2], 34.3 µM; in test [3] it was 21.1 µM; in test [4], 44.1 µM; in test [5] it was 21.3 µM; in test [6], 39.1 µM. Further, the GI50 in test [7] was 35 µM; in test [8], 37.7 µM. Moreover, the TGI in test [1] was greater than 100 µM; in test [2], 91.7 µM; in test [3] it was 70 µM; in test [4] it was greater than 100 µM; in test [5], greater than 100 µM; in test [6], greater than 100 µM. Also, the TGI in test [7] and in test [8] was greater than 100 µM each time.
As to `COC(=O)NC1(NC(=O)OC)NC(=O)c2ccccc2N1`, the TGI in test [1], in test [2], in test [3], in test [4], in test [5] and in test [6] was greater than 100 µM each time. The TGI in test [7] and in test [8] was greater than 100 µM throughout.
As for `O=C(O)/C=C/c1c2ccc(=O)c(O)c-2oc2c(O)c(O)ccc12`, the TGI was greater than 100 µM in test [1]; greater than 100 µM in test [2]; greater than 100 µM in test [3]; 40 µM in test [4]; greater than 100 µM in test [5]; greater than 100 µM in test [6]. Besides, the TGI in test [7] and in test [8] was greater than 100 µM each time.
